# Experimental data: ChEMBL document CHEMBL5674860, “Optimized Dual-Glo Assay to identify co-culture-induced drug vulnerabilities in 3D CRC models” (2024)
# “And” between values parts separate entries of the source, which are not always exact repeats. Equal entries are not always repeated.
# Key:
# Assay type in all cases: functional, Homo sapiens
# Design in all cases: dose or concentration left out as unconfirmed
# Colon cancer organoid [1] = assay: Optimized Dual-Glo assay to identify co-culture induced drug vulnerabilities using donated chemical probes and chemogenomics kinase set in O14 CRC organoid and F14 CAF mono and co-culture. […] Cell viability is reported both mono and co-culture models.
# Colon cancer organoid [2] = assay: Optimized Dual-Glo assay to identify co-culture induced drug vulnerabilities using donated chemical probes and chemogenomics kinase set in O20 CRC organoid and F20 CAF mono and co-culture. […] Cell viability is reported both mono and co-culture models.
# Colon cancer organoid [3] = assay: Optimized Dual-Glo assay to identify co-culture induced drug vulnerabilities using donated chemical probes and chemogenomics kinase set in O06 CRC organoid and F06 CAF mono and co-culture. […] Cell viability is reported both mono and co-culture models.
# [4] = Culture type Co-Culture, Transduced with Lucferase2-P2A-EGFP lentivirus
# [5] = Culture type Co-Culture, Transduced with Renilla-dsRed lentivirus
# [6] = Culture type Mono-Culture, Transduced with Lucferase2-P2A-EGFP lentivirus
# [7] = Culture type Mono-Culture, Transduced with Renilla-dsRed lentivirus
Structure (SMILES),Cell Viability (Colon cancer organoid [1]; [4]),Cell Viability (Colon cancer organoid [1]; [5]),Cell Viability (Colon cancer organoid [1]; [6]),Cell Viability (Colon cancer organoid [1]; [7]),Cell Viability (Colon cancer organoid [2]; [4]),Cell Viability (Colon cancer organoid [2]; [5]),Cell Viability (Colon cancer organoid [2]; [6]),Cell Viability (Colon cancer organoid [2]; [7]),Cell Viability (Colon cancer organoid [3]; [4]),Cell Viability (Colon cancer organoid [3]; [5]),Cell Viability (Colon cancer organoid [3]; [6]),Cell Viability (Colon cancer organoid [3]; [7])
CCOC(=O)c1c(/C(C#N)=C\N)c2ccc(Cl)c(Cl)c2n1C,135.947%,65.0868%,144.997%,76.1592%,92.1376%,87.4636%,163.638%,89.5418%,122.99%,97.4073%,58.62%,82.6208%
CNc1nc(-c2ccc3c(N)n[nH]c3c2)cc(N2C[C@@H](C(=O)NC3CCCCC3)CC[C@H]2C)n1,75.802%,81.9858%,103.482%,52.6977%,51.6899%,121.574%,29.0897%,81.2947%,59.8926%,53.4401%,68.2825%,54.6916%
Cc1ccc(NC(=O)Nc2cc(C(F)(F)F)ccc2F)cc1Nc1ccc2c(c1)NC(=O)/C2=C\c1ccc[nH]1,100.84%,80.7866%,148.906%,94.1932%,98.8429%,67.3177%,149.041%,99.6693%,112.777%,121.077%,144.763%,85.6075%
OCCn1cc(-c2ccc3c(c2)CCC3=NO)c(-c2ccncc2)n1,155.629%,130.506%,186.115%,118.266%,201.802%,70.8995%,81.9137%,103.135%,81.3359%,109.303%,157.495%,121.815%
COc1cc2c(NC3CCN(C(C)C)CC3)nc(N3CCC(F)(F)CC3)nc2cc1OCCCN1CCCC1,56.1565%,72.4133%,84.8802%,67.5673%,136.034%,132.743%,70.3827%,53.0002%,88.0521%,104.162%,44.5913%,47.5732%
Cc1ccc(C(=O)Nc2cccc(C(F)(F)F)c2)cc1Nc1nc(-c2cccnc2)nc2c1cnn2C,103.322%,86.6207%,91.8457%,71.8424%,141.672%,123.917%,68.1835%,97.2478%,60.2736%,70.9034%,100.972%,83.1262%
CCOc1cn(-c2ccc(F)cc2C)nc1C(=O)Nc1ccc(Oc2ccnc3cc(OC)c(OC)cc23)c(F)c1,102.771% and 90.3388%,85.9243% and 77.553%,131.662% and 123.945%,95.388% and 87.085%,230.831% and 191.214%,78.4446% and 96.4847%,106.501% and 84.8653%,96.6073% and 93.6855%,87.51% and 89.4828%,84.5689% and 64.7371%,86.2071% and 96.2779%,101.871% and 88.7626%
C=CC(=O)Nc1cccc(C(=O)Nc2ccc(Nc3cc(-c4[nH]c(SC)nc4C)ccn3)cc2)c1,92.8618%,104.149%,127.049%,88.1867%,175.75%,71.728%,133.783%,92.5554%,87.3077%,89.5907%,92.9694%,99.3546%
Cc1cc2c(cc1N1C(=O)c3cccc4c(CCCO)ccc(c34)C1=O)n(C)c(=O)n2C,46.4165%,127.225%,64.4307%,101.303%,35.0091%,231.762%,20.745%,97.4451%,83.3962%,164.269%,66.8328%,103.172%
Cn1cc(CCn2cnc(-c3cnn(C)c3)c2-c2ccc(C#N)cc2)cn1,112.655%,89.8106%,89.6485%,97.1773%,162.016%,107.326%,101.421%,89.845%,101.212%,117.261%,137.811%,99.9578%
CCN(CC)S(=O)(=O)Nc1cccc(-c2ccc3c(NC(=O)C4CC4)n[nH]c3c2)c1,132.967%,105.386%,144.3%,103.503%,76.1767%,136.148%,110.502%,120.639%,95.7035%,91.2372%,90.915%,111.432%
CC(C)C(=O)Nc1n[nH]c2cc(-c3cccc(NS(=O)(=O)C4CC4)c3)ccc12,100.589%,100.218%,136.967%,94.5263%,85.5363%,102.387%,113.542%,124.62%,155.711%,134.333%,107.561%,124.696%
Clc1cc2c(NC3CCCC3)nnc(-c3ccncc3)c2cc1Cl,74.2058%,99.3707%,72.2513%,106.405%,149.301%,128.6%,80.485%,77.3951%,131.765%,133.642%,39.455%,87.2375%
CN1C(=O)c2sccc2N(C)c2nc(Nc3ccc(S(N)(=O)=O)cc3)ncc21,32.5942%,86.9407%,37.7546%,55.4366%,36.1991%,84.1947%,15.0082%,80.0783%,23.972%,57.2364%,18.6697%,40.4928%
